In patent publication US11377441B2, “Covalent inhibitors of KRAS” (Araxes Pharma LLC, priority 2017, dated 2022):

These compounds were tested against T1, KRAS G12C 1-169, his-tagged protein, GDP-loaded (Homo sapiens, UniProt P01116, G12C) (assay: Biochemical assay: covalent modification of KRAS G12C measured by mass spectrometry (RapidFire/TOF or Q-Exactive)). Conditions: covalent binding to (modification of) KRAS G12C after a ten minute incubation period.
T1 construct: KRAS G12C 1-169, his-tagged protein, GDP-loaded
Assay type: binding
Protocol: Test compounds were prepared as 10 mM stock solutions in DMSO (Fisher cat #BP-231-100). KRAS G12C 1-169, his-tagged protein, GDP-loaded is diluted to 2 μM or 0.5 μM in buffer (20 mM Hepes, 150 mM NaCl, 1 mM MgCl2). Compounds were tested for activity as follows:
Compounds were diluted to 50× final test concentration in DMSO in 96-well storage plates. Compound stock solutions were vortexed before use and observed carefully for any sign of precipitation. Dilutions are as follow: • For 100 μM final compound concentration, compounds were diluted to 5000 μM (5 μL 10 mM compound stock+5 μL DMSO and mixed well by pipetting. • For 30 μM final compound concentration, compounds were diluted to 1500 μM (3 μL 10 mM compound stock+17 μL DMSO) and mixed well by pipetting. • For 10 μM final compound concentration, compounds were diluted to 500 μM (2 μL 10 mM compound stock+38 μL DMSO) and mixed well by pipetting. 49 μL of the stock protein solution was added to each well of a 96-well PCR plate (Fisher cat #1423027). 1 μL of the diluted 50× compounds were added to appropriate wells in the PCR plate using 12-channel pipettor. Reactions were mixed carefully and thoroughly by pipetting up/down with a 200 μL multi-channel pipettor. The plate was sealed well with aluminum plate seal, and stored in drawer at room temperature for 10 minutes, 30 minutes, 2 hours or 24 hours. 5 μL of 2% formic acid (Fisher cat #A117) in de-ionized H2O was then added to each well followed by mixing with a pipette. The plate was then resealed with aluminum seal and stored on dry ice until analyzed as described below.
The above described assays were analyzed by mass spectrometry according to one of the following two procedures:
The MS instrument was set to positive polarity, 2 GHz resolution, and low mass (1700) mode and allowed to equilibrate for 30 minutes. The instrument was then calibrated, switched to acquisition mode and the appropriate method loaded.
After another 30 minute equilibration time, a blank batch (i.e., buffer) was run to ensure equipment is operating properly. The samples were thawed at 37° C. for 10 minutes, briefly centrifuged, and transfer to the bench top. Wells A1 and H12 were spiked with 1 μL 500 μM internal standard peptide, and the plates centrifuged at 2000×g for 5 minutes. The method was then run and masses of each individual well recorded.
The masses (for which integration data is desired) for each well were pasted into the platemap and exported from the analysis. Masses for the internal standards were exported as well. The data at 50 ppm was extracted for the +19 charge state, and identity of well A1 was assigned using the internal standard spike and integrated. Peak data was exported as a TOF list and the above steps were repeated individually, for the +20, 21, 22, 23, 24, and 25 charge states.
The masses and peak intensities of KRAS G12C protein species were measured using a Dionex RSLCnano system (Thermo Scientific) connected to a Q Exactive Plus mass spectrometer (Thermo Scientific).
[…] of sample was each loaded onto a Aeris™ 3.6 μm WIDEPORE C4 200 Å, LC Column 50×2.1 mm column maintained at 40° C. at a flow rate of 600 μL/min with 20% Solvent A (0.1% formic acid in H2O) and […] (0.1% formic acid in acetonitrile). The liquid chromatography conditions were 20% solvent B for 1 minute, 20% to 60% solvent B for 1.5 minutes, 60% to 90% solvent for 0.5 minute, 90% solvent B for 0.2 minute, 90% to 20% solvent B for 0.2 minute, and then equilibrated for 1.6 minutes before the following sample injection. The flow rate was maintained at 600 μL/min throughout the sample analysis.
The mass spectrometer was operated in profile mode at a resolution of 17500, 5 microscans, using 50 msec max injection time and an AGC target of 1×10^6, and a full mass range from 800-1850 m/z was recorded. The HCD trapping gas was optimized for maximum sensitivity for intact proteins. […]

Compound | Binding %
C=CC(=O)N1C[C@H](C)N(c2nc(N3CC(N(C)C)C3)nc3c(F)c(-c4c(C)ccc5nn(C)cc45)c(Cl)cc23)C[C@H]1C (atropisomer, axis not shown) [Compound 88, 1-((2R,5S)-4-((R)-6-chloro-7-(2,5-dimethyl-2H-indazol-4-yl)-2-(3-(dimethylamino)azetidin-1-yl)-8-fluoroquinazolin-4-yl)-2,5-dimethylpiperazin-1-yl)prop-2-en-1-one] | ++ (++ indicates binding activity from 50 to 80%)
C=CC(=O)N1C[C@H](C)N(c2nc(N3CC(N(C)C)C3)nc3c(F)c(-c4c(C)ccc5[nH]nc(N)c45)c(Cl)cc23)C[C@H]1C (atropisomer, axis not shown) [Compound 89, 1-((2R,5S)-4-((R)-7-(3-amino-5-methyl-1H-indazol-4-yl)-6-chloro-2-(3-(dimethylamino)azetidin-1-yl)-8-fluoroquinazolin-4-yl)-2,5-dimethylpiperazin-1-yl)prop-2-en-1-one] | +++ (+++ indicates binding activity greater than 80%)
C=CC(=O)N1C[C@H](C)N(c2nc(N3CC(N(C)C)C3)nc3c(F)c(-c4c(C)ccc5[nH]nc(N)c45)c(Cl)cc23)C[C@H]1C (atropisomer, axis not shown) [Compound 90, 1-((2R,5S)-4-((S)-7-(3-amino-5-methyl-1H-indazol-4-yl)-6-chloro-2-(3-(dimethylamino)azetidin-1-yl)-8-fluoroquinazolin-4-yl)-2,5-dimethylpiperazin-1-yl)prop-2-en-1-one] | + (+ indicates binding activity greater than 0% and up to 50%)
C=CC(=O)N1C[C@H](C)N(c2nc(N3CC(N(C)C)C3)nc3c(F)c(-c4c(C)ccc5onc(N)c45)c(Cl)cc23)C[C@H]1C (atropisomer, axis not shown) [Compound 96, 1-((2R,5S)-4-((S)-7-(3-amino-5-methylbenzo[d]isoxazol-4-yl)-6-chloro-2-(3-(dimethylamino)azetidin-1-yl)-8-fluoroquinazolin-4-yl)-2,5-dimethylpiperazin-1-yl)prop-2-en-1-one] | + (+ indicates binding activity greater than 0% and up to 50%)
C=CC(=O)N1C[C@H](C)N(c2nc(N3CC(N(C)C)C3)nc3c(F)c(-c4c(C)ccc5[nH]nc(C)c45)c(Cl)cc23)C[C@H]1C (atropisomer, axis not shown) [Compound 97, 1-((2R,5S)-4-((S)-6-chloro-7-(3,5-dimethyl-1H-indazol-4-yl)-2-(3-(dimethylamino)azetidin-1-yl)-8-fluoroquinazolin-4-yl)-2,5-dimethylpiperazin-1-yl)prop-2-en-1-one] | + (+ indicates binding activity greater than 0% and up to 50%)
C=CC(=O)N1C[C@H](C)N(c2nc(N3CC(N(C)C)C3)nc3c(F)c(-c4c(C)ccc5[nH]nc(C)c45)c(Cl)cc23)C[C@H]1C (atropisomer, axis not shown) [Compound 98, 1-((2R,5S)-4-((R)-6-chloro-7-(3,5-dimethyl-1H-indazol-4-yl)-2-(3-(dimethylamino)azetidin-1-yl)-8-fluoroquinazolin-4-yl)-2,5-dimethylpiperazin-1-yl)prop-2-en-1-one] | +++ (+++ indicates binding activity greater than 80%)
C=CC(=O)N1CCN(c2nc(N3CC(N(C)C)C3)nc3c(F)c(-c4c(C)ccc5[nH]nc(C6CC6)c45)c(Cl)cc23)C[C@H]1C (atropisomer, axis not shown) [Compound 101, 1-((R)-4-((S)-6-chloro-7-(3-cyclopropyl-5-methyl-1H-indazol-4-yl)-2-(3-(dimethylamino)azetidin-1-yl)-8-fluoroquinazolin-4-yl)-2-methylpiperazin-1-yl)prop-2-en-1-one] | + (+ indicates binding activity greater than 0% and up to 50%)
C=CC(=O)N1CCN(c2nc(N3CC(N(C)C)C3)nc3c(F)c(-c4c(C)ccc5[nH]nc(C6CC6)c45)c(Cl)cc23)C[C@H]1C (atropisomer, axis not shown) [Compound 102, 1-((R)-4-((R)-6-chloro-7-(3-cyclopropyl-5-methyl-1H-indazol-4-yl)-2-(3-(dimethylamino)azetidin-1-yl)-8-fluoroquinazolin-4-yl)-2-methylpiperazin-1-yl)prop-2-en-1-one] | +++ (+++ indicates binding activity greater than 80%)
C=CC(=O)N1CCN(c2nc(N3CC(N(C)C)C3)nc3c(F)c(-c4c(C)ccc5[nH]nc(C6CC6)c45)c(Cl)cc23)CC1 (atropisomer, axis not shown) [Compound 103, (S)-1-(4-(6-chloro-7-(3-cyclopropyl-5-methyl-1H-indazol-4-yl)-2-(3-(dimethylamino)azetidin-1-yl)-8-fluoroquinazolin-4-yl)piperazin-1-yl)prop-2-en-1-one] | + (+ indicates binding activity greater than 0% and up to 50%)
C=CC(=O)N1CCN(c2nc(N3CC(N(C)C)C3)nc3c(F)c(-c4c(C)ccc5[nH]nc(C6CC6)c45)c(Cl)cc23)CC1 (atropisomer, axis not shown) [Compound 104, (R)-1-(4-(6-chloro-7-(3-cyclopropyl-5-methyl-1H-indazol-4-yl)-2-(3-(dimethylamino)azetidin-1-yl)-8-fluoroquinazolin-4-yl)piperazin-1-yl)prop-2-en-1-one] | +++ (+++ indicates binding activity greater than 80%)
C=CC(=O)N1C[C@H](C)N(c2nc(N3CC(N(C)C)C3)nc3c(F)c(-c4c(C)ccc5cn(C)nc45)c(Cl)cc23)C[C@H]1C (atropisomer, axis not shown) [Compound 105, 1-((2R,5S)-4-((R)-6-chloro-7-(2,6-dimethyl-2H-indazol-7-yl)-2-(3-(dimethylamino)azetidin-1-yl)-8-fluoroquinazolin-4-yl)-2,5-dimethylpiperazin-1-yl)prop-2-en-1-one] | ++ (++ indicates binding activity from 50 to 80%)
C=CC(=O)N1C[C@H](C)N(c2nc(NC3CCN(C4CC4)CC3)nc3c(F)c(-c4c(C)ccc5[nH]nc(C6CC6)c45)c(Cl)cc23)C[C@H]1C (atropisomer, axis not shown) [Compound 110, 1-((2R,5S)-4-((S)-6-chloro-7-(3-cyclopropyl-5-methyl-1H-indazol-4-yl)-2-(1-cyclopropylpiperidin-4-ylamino)-8-fluoroquinazolin-4-yl)-2,5-dimethylpiperazin-1-yl)prop-2-en-1-one] | + (+ indicates binding activity greater than 0% and up to 50%)
C=CC(=O)N1C[C@H](C)N(c2nc(NC3CCN(C4CC4)CC3)nc3c(F)c(-c4c(C)ccc5[nH]nc(C6CC6)c45)c(Cl)cc23)C[C@H]1C (atropisomer, axis not shown) [Compound 111, 1-((2R,5S)-4-((R)-6-chloro-7-(3-cyclopropyl-5-methyl-1H-indazol-4-yl)-2-(1-cyclopropylpiperidin-4-ylamino)-8-fluoroquinazolin-4-yl)-2,5-dimethylpiperazin-1-yl)prop-2-en-1-one] | ++ (++ indicates binding activity from 50 to 80%)
C=CC(=O)N1C[C@H](C)N(c2nc(OCCN3CCOCC3)nc3c(F)c(-c4c(C)ccc5[nH]nc(C6CC6)c45)c(Cl)cc23)C[C@H]1C (atropisomer, axis not shown) [Compound 112, 1-((2R,5S)-4-((S)-6-chloro-7-(3-cyclopropyl-5-methyl-1H-indazol-4-yl)-8-fluoro-2-(2-morpholinoethoxy)quina-zolin-4-yl)-2,5-dimethylpiperazin-1-yl)prop-2-en-1-one] | + (+ indicates binding activity greater than 0% and up to 50%)
